Results published in US7223547B2, “Polypeptides having a functional domain of interest and methods of identifying and using same” (Cytogen Corporation, priority 1995, dated 2007).
* marks the point of attachment. Biotin = O=C1N[C@H]2[C@H](CS[C@H]2CCCCC(=O)*)N1

Legend:
[1] = target: SH3 domain of Abl (Homo sapiens, UniProt P00519); test: Stated SH3 domain binding of recognition unit
[2] = test system: SH3 domain of Nck

SH3 domain of Abl, sequence (P00519 61-121 limits assumed): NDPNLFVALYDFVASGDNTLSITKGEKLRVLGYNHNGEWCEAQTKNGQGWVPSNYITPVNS

Substance	binding to the SH3 domain of Abl [1]	binding to the SH3 domain of Nck [2]
Biotin-SRPPRWSPPPVPLPTSLDSR-NH2 [PXXP.ABL.G1/2M]	bind	
Biotin-SRSLSEVSPKPPIRSVSLSR-NH2 [PXXP.NCK.S1/4]		bind
